Patent publication US11434205B2, “Substituted imidazole carboxylate derivatives and the use thereof” (priority 2018, dated 2022)
Like-named read-outs stand apart in the source and are kept apart here.

Assays:
[1] = tested on: secretion of cortisol, H295R cell line; assay: cells; type: cell-based; conditions: for EC50: read-out: EC50 (Cortisol)
Method: (§1) The Effects of the Compounds on Adrenocortical Function In Vitro Test
(§2) Then secretion of the cortisol and corticosterone in the supernatant, was measured using HPLC-MS/MS method to determine whether the compounds of the present invention had adrenotoxic potential.

[2] = tested on: secretion of corticosterone, H295R cell line; assay: cells; type: cell-based; conditions: for EC50: read-out: EC50 (Corticosterone)
Method: as §1, §2

rats [3] = type: in vivo, rat; conditions: rats of the MAP/HR figures, 2×ED50, tail vein
rats [4] = tested on: rats
Method: Adult male Sprague-Dawley rats (250-300 g) were selected for the experiment. […] The anesthesia effects of the compounds were assessed in rats using a LORR assay and a period >30 s was considered as an indicator of general anesthesia. Then the up and down method was used to determine 50% effective dose (ED50). The drugs were administered through the tail vein of rats in a volume of 0.6 mL and at a rate of 0.1 mL/s.

rats [5] = type: in vivo, rat; conditions: rats of the MAP/HR figures, 2×ED50, tail vein; same value in min
Method in brief: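 Hemodynamic stability judged from mean arterial pressure and heart rate, recorded at 15 s intervals over 30 min pre- and post-dose. Dosing was through a tail-vein indwelling catheter in rats carrying implanted aortic/ventricular catheters and ECG wires, operated ≥1 week earlier.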

rats [6] = tested on: rats; remark: listed apart in the source
Method: Pharmacological Effects of the Compounds on Continuous Infusion in Rats
Adult male Sprague-Dawley rats with body weight ranging from 250 to 300 gm were selected for continuous infusion test. […] Time to recovery of righting reflex from stopping infusion, and time to fully awake from stopping infusion were recorded.

rats [7] = assay: Pharmacological characteristics at equivalent doses (2×ED50) in rats; conditions: 2×ED50, tail vein; for Adverse reactions: Red urine (incidence): DMSO solution (DMSO alone 10/10); for Onset time: time of LORR; for Adverse reactions: Tremor (incidence): animals affected/animals
Method in brief: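 Anesthesia onset, recorded as time of LORR, was measured after a 2×ED50 tail-vein injection (0.6 mL, 0.1 mL/s). Animals were male Sprague-Dawley rats of 250-300 g, n=8.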

rats [8] = assay: Loss of righting reflexes (LORR) assay in rats, ED50 by up and down method; type: in vivo, rat; conditions: tail vein, class symbols; for ED50: Rattus norvegicus
Method in brief: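 ED50 obtained by up-and-down dosing, with righting-reflex loss over 30 s counted as general anesthesia. Compounds injected into the tail vein (0.1 mL/s) of male Sprague-Dawley rats weighing 250-300 g.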

[9] = H295R cell line, 0.1-10000 nM, HPLC-MS/MS, Table D3
[10] = continuous tail vein infusion at 2×MIR, LORR maintained 1 hour, Table D4
[11] = H295R cell line, 0.1-10000 nM, HPLC-MS/MS, Table E3
[12] = continuous tail vein infusion at 2×MIR, LORR maintained 1 hour, Table E4
[13] = emulsion, continuous infusion at 2×MIR
[14] = continuous tail vein infusion at 2×MIR, LORR maintained 1 hour, Table C4

Structure (SMILES) | Cortisol as an indicator to determine the presence of inhibition [1, 9] | EC50 ([1]; Homo sapiens, NCI-H295R) [µM] | Corticosterone as an indicator to determine the presence of inhibition [2, 9] | EC50 ([2]; Homo sapiens, NCI-H295R) [µM] | recovery time of the test animals' righting reflex (rats [3]) [s] | Approximate therapeutic index (rats [4]) | Minimal lethal dose (rats [4]) [mg/kg] | recovery time of the test animals' righting reflex (rats [5]) [min] | Onset time (rats [6]; [10]) [min] | Recovery time after stopping infusion (rats [6]; [10]) [min] | Types and incidence of adverse reactions (rats [6]; [10]) | Righting reflex duration (rats [7]) [min] | Adverse reactions: Red urine (incidence) (rats [7]) | Onset time (rats [7]) [min] | ED50 (rats [8]) [mg/kg] | Recovery time after stopping infusion (rats [6]; after 1 hour infusion at 2×MIR) [min] | Adverse reactions: Tremor (incidence) (rats [6]; continuous infusion 2×MIR) | Onset time (rats [6]; [13]) [min] | other results
C#CC(C)OC(=O)c1cncn1[C@H](C)c1ccccc1 (some centres unmarked) [Compound D14] | 0 | > 10 | 0 | > 10 | 210 | >13 | >3 | 3.5 | 2 to 3 | 11 to 14 | Tremor (5/6) | 2.09 ± 1.08 | Red urine (8/8) | 0.24 ± 0.09 | 0.1 to 0.5 |  |  |  | 
C=C=CC1(OC(=O)c2c(F)ncn2[C@H](C)c2ccccc2)COC1 [Compound E37] |  |  |  |  | 100 | >30 | >0.6 | 1.67 |  |  |  | 1.75 ± 0.26 | (8/8) | 0.25 ± 0.15 |  |  |  |  | Cortisol as an indicator to determine the presence of inhibition [1, 11]: 0; EC50 [1, 11]: > 10 µM; Corticosterone as an indicator to determine the presence of inhibition [2, 11]: 0; EC50 [2, 11]: > 10 µM; Onset time (rats [6]; [12]): 2 to 3 min; Recovery time after stopping infusion (rats [6]; [12]): 7 to 10 min; Types and incidence of adverse reactions (rats [6]; [12]): Tremor (2/6); Sedation duration (mg/kg) (rats [7]): 3.66 ± 1.12; ED50 (mg/kg) (rats [8]): A (A indicates that the measured ED50 is in the range of 0.01-0.10 mg/kg (including 0.01 and 0.10 mg/kg).)
C[C@H](c1ccccc1)n1cnc(F)c1C(=O)OCC1CC1 [Compound E8] |  |  |  |  | 120 | >22 | >4 | 2.00 |  |  |  | 1.90 ± 0.82 | (8/8) | 0.38 ± 0.06 |  |  |  |  | Cortisol as an indicator to determine the presence of inhibition [1, 11]: 0; EC50 [1, 11]: > 0.1 µM; Corticosterone as an indicator to determine the presence of inhibition [2, 11]: 0; EC50 [2, 11]: > 0.1 µM; Onset time (rats [6]; [12]): 3 to 4 min; Recovery time after stopping infusion (rats [6]; [12]): 12 to 14 min; Types and incidence of adverse reactions (rats [6]; [12]): Tremor (1/6), Tongue stretching (4/6); Sedation duration (mg/kg) (rats [7]): 7.12 ± 0.81; ED50 (mg/kg) (rats [8]): B (B means that the measured ED50 is in the range of 0.10-0.50 mg/kg (excluding 0.10 mg/kg, including 0.50 mg/kg).)
CCCC1(OC(=O)c2cncn2[C@H](C)c2ccccc2)COC1 [Compound B19] |  | > 10 |  | > 10 | 125 | >11 | >20 | 2.08 |  |  |  | 1.99 ± 1.39 | 8/8 | 0.31 ± 0.13 | 0.5 to 1 | 12 to 17 | Tremor (5/6) | 3 to 4 | Cortisol as an indicator to determine the presence of inhibition ([1]; H295R, Table B3): 0; Corticosterone as an indicator to determine the presence of inhibition ([2]; H295R, Table B3): 0; Adverse reactions: Tremor (incidence) (rats [7]): 2/8
CCC1(COC(=O)c2cncn2[C@H](C)c2ccccc2)COC1 [Compound B9] |  | > 10 |  | > 10 | 109 | >12 | >18 | 1.82 |  |  |  | 1.98 ± 1.21 | 8/8 | 0.39 ± 0.1 | 0.5 to 1 | 10 to 13 | 1/6 | 2 to 3 | Cortisol as an indicator to determine the presence of inhibition ([1]; H295R, Table B3): 0; Corticosterone as an indicator to determine the presence of inhibition ([2]; H295R, Table B3): 0; Adverse reactions: Restlessness (incidence) (rats [6]; continuous infusion 2×MIR): 2/6; Adverse reactions: Restlessness (incidence) (rats [7]): 1/8
COCC1(COC(=O)c2cncn2[C@H](C)c2ccccc2)CCC1 [Compound A11] |  | > 10 |  | > 10 | 225 | >12 | >1 | 3.75 |  |  |  | 3.81 ± 1.49 | Red urine (8/8) | 0.21 ± 0.10 | 0.01 to 0.1 | 14 to 18 | Tremor (5/6) | 3 to 4 | Cortisol as an indicator to determine the presence of inhibition ([1]; H295R, Table A3): 0; Corticosterone as an indicator to determine the presence of inhibition ([2]; H295R, Table A3): 0
CCC#CC(C)OC(=O)c1cncn1[C@H](C)c1ccccc1 (some centres unmarked) [Compound D36] | 0 | > 1 | 0 | > 1 | 143 | >15 | >4 | 2.38 | 3 to 4 | 12 to 17 |  | 2.63 ± 1.78 | Red urine (8/8) | 0.31 ± 0.14 | 0.1 to 0.5 |  |  |  | Adverse reactions: Hindlimb rigidity (incidence) (rats [7]): Hindlimb rigidity (2/8),; Adverse reactions: Tongue stretching (incidence) (rats [7]): Tongue stretching (4/8),
C=C=CC1(OC(=O)c2cncn2[C@H](C)c2ccccc2)CCC1 [Compound D13] | 0 | > 10 | 0 | > 10 | 109 | >12 | >6 | 1.82 | 2 to 3 | 13 to 22 | Tremor (4/6) | 5.09 ± 1.89 | Red urine (8/8) | 0.25 ± 0.06 | 0.01 to 0.1 |  |  |  | 
C[C@H](c1ccccc1)n1cncc1C(=O)OC(C)(C)C [Compound C18] |  | > 1 |  | > 1 | 115 | >14 | >5 | 1.92 |  |  |  | 1.96 ± 1.39 | (8/8) | 0.25 ± 0.13 | 0.1 to 0.5 |  |  |  | Cortisol as an indicator to determine the presence of inhibition ([1]; H295R, Table C3): 0; Corticosterone as an indicator to determine the presence of inhibition ([2]; H295R, Table C3): 0; Onset time (rats [6]; [14]): 3 to 4 min; Recovery time after stopping infusion (rats [6]; [14]): 10 to 14 min; Types and incidence of adverse reactions (rats [6]; [14]): Tremor (1/6); Adverse reactions: Tremor (incidence) (rats [7]): Tremor (5/8), Red urine
C=C=CC1(OC(=O)c2cncn2[C@H](C)c2ccccc2)CCCCC1 [Compound D43] | 0 | > 10 | 0 | > 10 | 117 | >13 | >1 | 1.95 | 2 to 3 | 11 to 14 | Tremor (4/6) | 1.45 ± 0.78 | Red urine (8/8) | 0.22 ± 0.07 | 0.01 to 0.1 |  |  |  | Adverse reactions: Hindlimb rigidity (incidence) (rats [7]): Hindlimb rigidity (2/8),
